Key:
[1] = Acute toxicity (LD50), intraperitoneal, mice (Example 6, Table 4); type: in vivo, 6 week old female albino mice; settings: i.p.; for Estimated LD50 dose: mice
Source text: The toxicity of these mixtures (LD50) are compared with the toxicity of poly I alone and the double-stranded complex between poly I and poly C (poly I:C). The mixtures contained poly ho^5 C containing 62% ho^5 CMP and 38% br^5 CMP obtained by bromine water treatment of poly C as described in example 1. Some of this material was frozen in the absence of salt to produce a gelled material when thawed. This material was homogenised and mixed with an equal weight of poly I and then administered intraperitoneally to the mice. Some of the poly ho^5 C is kept unfrozen and mixed with poly I and then administered intraperitoneally to the mice.
Poly I:C was made up in HBS at 5mg. 8mg, 10mgs and 13mg/ml and 0.1ml
injected per mouse to give the total doses shown.
Poly I was made up in HBS at 12mg/ml and appropriate volumes administered
to give the final doses indicated.
in HBS to a total polynucleotide concentration of 12mg/ml and appropriate
volumes administered to give the final doses indicated.
No deaths occurred after 7 days (records maintained 2 months) and mean

[2] = particularly by virtue of its ability to induce interferon; cited from earlier work

| Substance | Survival of mice per group ([1]; 8 mg total polynucleotides) | Survival of mice per group ([1]; 12 mg total polynucleotides) | Survival of mice per group ([1]; 16 mg total polynucleotides) | Survival of mice per group ([1]; 24 mg total polynucleotides) | Estimated LD50 dose [1] [mg/mouse] | Estimated LD50 dose ([1]; mean weight 23 g) [mg/kilogram] | Survival of mice per group ([1]; 0.5 mg total polynucleotides) | Survival of mice per group ([1]; 0.8 mg total polynucleotides) | Survival of mice per group ([1]; 1.0 mg total polynucleotides) | Survival of mice per group ([1]; 1.3 mg total polynucleotides) | anti-viral effects [2] |
| --- | --- | --- | --- | --- | --- | --- | --- | --- | --- | --- | --- |
| polyinosinic acid [poly I] | 5/6 | 5/6 | 3/6 | 1/6 | 16 | 695 | – | – | – | – | – |
| poly I:C | – | – | – | – | 1.1 | 48 | 10/10 | 8/10 | 6/10 | 0/10 | known to have anti-viral effects |
